As usually defined, the AC50 is the concentration giving half of the maximal activity seen. Low readings indicate greater potency, high ones weaker potency.

In ChEMBL document CHEMBL5291721, “A preclinical secondary pharmacology resource illuminates target-adverse drug reaction associations of marketed drugs” (Nat Commun, 2023) one finds AC50 data, which are given here for six compounds.

For experiment [1], the target named is T1, Gastrin/cholecystokinin type B receptor (Homo sapiens, UniProt P32239).
T1 sequence (P32239 whole entry): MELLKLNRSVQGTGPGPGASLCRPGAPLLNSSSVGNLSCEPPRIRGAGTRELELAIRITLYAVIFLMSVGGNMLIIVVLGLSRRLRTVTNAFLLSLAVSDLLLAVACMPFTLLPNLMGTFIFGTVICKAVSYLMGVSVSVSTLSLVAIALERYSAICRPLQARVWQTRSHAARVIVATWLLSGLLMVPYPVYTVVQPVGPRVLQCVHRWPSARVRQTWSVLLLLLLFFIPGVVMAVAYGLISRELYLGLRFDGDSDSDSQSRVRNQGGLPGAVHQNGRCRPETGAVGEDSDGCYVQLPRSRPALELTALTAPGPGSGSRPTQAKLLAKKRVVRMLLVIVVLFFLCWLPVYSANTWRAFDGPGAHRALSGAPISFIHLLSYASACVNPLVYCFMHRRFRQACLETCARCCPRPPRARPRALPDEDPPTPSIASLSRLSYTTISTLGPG

The target of experiment [2] is T2, Progesterone receptor (Homo sapiens, UniProt P06401).
T2 sequence (P06401 whole entry): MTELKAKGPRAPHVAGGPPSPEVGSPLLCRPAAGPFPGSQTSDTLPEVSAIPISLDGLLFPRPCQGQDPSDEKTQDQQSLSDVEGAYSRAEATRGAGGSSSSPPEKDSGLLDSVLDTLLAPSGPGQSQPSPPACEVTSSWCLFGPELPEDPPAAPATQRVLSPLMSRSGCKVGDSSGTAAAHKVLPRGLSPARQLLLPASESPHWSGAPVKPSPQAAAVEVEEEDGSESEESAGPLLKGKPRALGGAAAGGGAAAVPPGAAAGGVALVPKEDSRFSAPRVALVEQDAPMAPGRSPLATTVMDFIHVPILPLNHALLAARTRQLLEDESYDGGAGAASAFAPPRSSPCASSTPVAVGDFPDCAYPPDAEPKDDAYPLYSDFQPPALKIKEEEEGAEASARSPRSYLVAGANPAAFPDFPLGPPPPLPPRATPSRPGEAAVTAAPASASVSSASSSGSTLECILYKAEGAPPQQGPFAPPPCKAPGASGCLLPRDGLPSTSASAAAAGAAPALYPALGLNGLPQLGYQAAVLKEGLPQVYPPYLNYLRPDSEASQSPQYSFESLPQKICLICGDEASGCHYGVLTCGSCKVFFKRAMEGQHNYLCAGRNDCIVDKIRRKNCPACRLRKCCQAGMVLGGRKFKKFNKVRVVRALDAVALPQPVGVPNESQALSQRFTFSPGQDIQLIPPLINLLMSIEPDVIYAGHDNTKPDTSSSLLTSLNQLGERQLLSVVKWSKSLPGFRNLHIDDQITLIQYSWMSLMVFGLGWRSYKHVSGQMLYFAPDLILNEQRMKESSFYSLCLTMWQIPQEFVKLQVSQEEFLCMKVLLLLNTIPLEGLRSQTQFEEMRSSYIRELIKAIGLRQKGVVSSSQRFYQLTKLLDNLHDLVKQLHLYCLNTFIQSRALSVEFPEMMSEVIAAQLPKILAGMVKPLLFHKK
It counts as functional.

In experiment [3] the target is Beta-2 adrenergic receptor (Homo sapiens, UniProt P07550).
In experiment [4] the target is T3, Muscarinic acetylcholine receptor M1 (Homo sapiens, UniProt P11229).
T3 sequence (P11229 whole entry): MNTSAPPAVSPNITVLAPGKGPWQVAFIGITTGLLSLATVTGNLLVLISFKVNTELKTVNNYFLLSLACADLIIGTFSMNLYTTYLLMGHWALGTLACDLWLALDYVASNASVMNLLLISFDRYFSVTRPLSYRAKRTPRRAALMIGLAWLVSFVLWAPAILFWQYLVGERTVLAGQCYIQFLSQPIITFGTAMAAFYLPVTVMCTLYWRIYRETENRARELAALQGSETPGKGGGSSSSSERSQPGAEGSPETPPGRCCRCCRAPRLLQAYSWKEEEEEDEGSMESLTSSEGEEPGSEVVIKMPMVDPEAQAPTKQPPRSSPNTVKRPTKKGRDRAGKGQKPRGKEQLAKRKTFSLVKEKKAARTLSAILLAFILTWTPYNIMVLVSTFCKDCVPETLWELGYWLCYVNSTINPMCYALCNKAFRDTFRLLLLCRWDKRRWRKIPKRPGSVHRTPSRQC
It counts as functional.

Experiment [5] deals with T2, Progesterone receptor. It counts as functional. The source holds these as a separate data set.
The target of experiment [6] is T4, Alpha-1A adrenergic receptor (Homo sapiens, UniProt P35348).
T4 sequence (P35348 whole entry): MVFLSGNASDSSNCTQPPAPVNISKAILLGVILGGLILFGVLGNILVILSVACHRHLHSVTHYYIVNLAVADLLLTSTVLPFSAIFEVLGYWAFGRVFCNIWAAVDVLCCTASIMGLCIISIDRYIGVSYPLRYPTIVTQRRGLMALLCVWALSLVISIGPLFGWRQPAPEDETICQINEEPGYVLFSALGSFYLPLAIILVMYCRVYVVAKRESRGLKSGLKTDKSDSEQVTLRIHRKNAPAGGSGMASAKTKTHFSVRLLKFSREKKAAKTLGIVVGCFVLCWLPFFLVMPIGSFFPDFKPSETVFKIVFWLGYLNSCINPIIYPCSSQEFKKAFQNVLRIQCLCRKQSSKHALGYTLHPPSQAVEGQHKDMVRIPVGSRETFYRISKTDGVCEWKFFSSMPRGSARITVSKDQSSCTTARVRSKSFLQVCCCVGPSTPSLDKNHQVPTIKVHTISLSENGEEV
It counts as functional, cell-based.

Experiment [7] concerns the target T5, Alpha-2B adrenergic receptor (Homo sapiens, UniProt P18089).
T5 sequence (P18089 whole entry): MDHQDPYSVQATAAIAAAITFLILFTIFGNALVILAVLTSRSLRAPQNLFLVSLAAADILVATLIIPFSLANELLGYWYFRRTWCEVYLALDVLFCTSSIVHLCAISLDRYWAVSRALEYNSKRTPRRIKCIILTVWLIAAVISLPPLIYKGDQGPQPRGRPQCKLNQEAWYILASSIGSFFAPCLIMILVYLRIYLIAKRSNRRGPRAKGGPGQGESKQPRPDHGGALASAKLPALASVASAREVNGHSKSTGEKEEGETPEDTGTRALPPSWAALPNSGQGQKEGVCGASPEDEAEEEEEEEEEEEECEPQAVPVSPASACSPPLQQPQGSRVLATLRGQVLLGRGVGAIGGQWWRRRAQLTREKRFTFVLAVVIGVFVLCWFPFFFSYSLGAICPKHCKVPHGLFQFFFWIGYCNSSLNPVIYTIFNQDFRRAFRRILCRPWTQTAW

Some results are limits rather than exact numbers.
Note: assay procedure not described here.

Sequence of Beta-2 adrenergic receptor (P07550 whole entry): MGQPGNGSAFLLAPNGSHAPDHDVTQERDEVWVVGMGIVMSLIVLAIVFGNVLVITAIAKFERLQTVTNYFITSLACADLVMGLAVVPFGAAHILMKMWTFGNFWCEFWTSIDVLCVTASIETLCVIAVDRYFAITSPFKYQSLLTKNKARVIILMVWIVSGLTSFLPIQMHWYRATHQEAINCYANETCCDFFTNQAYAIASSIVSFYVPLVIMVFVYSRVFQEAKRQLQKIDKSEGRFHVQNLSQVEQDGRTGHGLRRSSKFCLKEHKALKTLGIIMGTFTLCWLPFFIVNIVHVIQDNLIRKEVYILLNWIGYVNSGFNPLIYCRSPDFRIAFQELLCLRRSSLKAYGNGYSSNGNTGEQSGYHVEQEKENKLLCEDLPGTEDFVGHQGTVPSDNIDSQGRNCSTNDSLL

Take `C[C@@H]1CCC[C@H](C)N1NC(=O)c1ccc(Cl)c(S(N)(=O)=O)c1` [CLOPAMIDE]: the AC50 (in experiment [1]; at Progesterone receptor [2]; in experiment [3]; in experiment [4]; on Progesterone receptor [5]; in experiment [6]) was above 30 µM each time. Besides, the AC50 in experiment [7] is above 30 µM.

Take `O=C(O)CSCC(=O)NC1CCSC1=O` (stereo unspecified) [ERDOSTEINE]: the concentration at half-maximal activity (AC50) (in experiment [1]; at Progesterone receptor [2]; in experiment [3]; in experiment [4]; at Progesterone receptor [5]; in experiment [6]) was above 30 µM each time. Also, the AC50 in experiment [7] is above 30 µM.

As for `COc1cccc(N(C)C(=S)Oc2ccc3c(c2)CCCC3)n1` [LIRANAFTATE], the AC50 (in experiment [1]; on Progesterone receptor [2]; in experiment [3]; in experiment [4]; at Progesterone receptor [5]; in experiment [6]) was above 30 µM each time. The compound also yielded an AC50 in experiment [7] above 30 µM.

For the compound `O=C(O)c1cc(O)c2c3nc4ccccc4oc-3cc(=O)c2n1` [PIRENOXINE], the AC50 is above 30 µM in experiment [1]; above 30 µM at Progesterone receptor [2]; above 30 µM in experiment [3]; 6.7 µM in experiment [4]; above 30 µM at Progesterone receptor [5]; above 30 µM in experiment [6]. In addition, the activity in experiment [7] was half-maximal at 3.8 µM (AC50).

In the case of `CC(C)=CCOc1ccc(/C=C/C(=O)c2ccc(OCC=C(C)C)cc2OCC(=O)O)cc1` [SOFALCONE], the AC50 is above 30 µM in experiment [1]; 9.4 µM on Progesterone receptor [2]; 22 µM in experiment [3]; above 30 µM in experiment [4]; above 30 µM on Progesterone receptor [5]; above 30 µM in experiment [6]. The same compound gave an AC50 in experiment [7] above 30 µM.

Take `CN(C)c1cc(NC(=O)CNC(C)(C)C)c(O)c2c1C[C@H]1C[C@H]3[C@H](N(C)C)C(O)=C(C(N)=O)C(=O)[C@@]3(O)C(O)=C1C2=O` [TIGECYCLINE]: the half-maximal activity concentration (AC50) was above 30 µM in experiment [1]; above 30 µM at Progesterone receptor [2]; above 30 µM in experiment [3]; 27 µM in experiment [4]; above 30 µM on Progesterone receptor [5]; above 30 µM in experiment [7].
